In patent US20210401859A1, “METHODS OF TREATING CANCER IN BIOMARKER-IDENTIFIED PATIENTS WITH NON-COVALENT INHIBITORS OF CYCLIN-DEPENDENT KINASE 7 (CDK7)” (Syros Pharmaceuticals, Inc., priority 2018, published 2021):

Columns and labels:
[1] = tested on: ST390 (modeling pancreatic ductal adenocarcinoma (PDAC)); experiment: TGI in PDAC PDX model ST390; format: in vivo, NOD/SCID mice; conditions: 6 mg/kg QD, PO, vehicle ~1,250 mm^3
Protocol: In the PDAC model, Compound 101 was orally administered to tumor-bearing NOD/SCID mice at 6 mg/kg QD. […] The % regression was calculated as: (Mean TV Compound 101 @ EOT)/(Mean TV Compound 101 @ Day 0)×100. The same calculations were used for end of study (day 42).

[2] = tested on: BR5010, LU5178, OV15398 PDX models; experiment: TGI in PDX models BR5010 (TNBC), LU5178 (SCLC), OV15398 (HGSOC); format: in vivo, NOD/SCID mice; conditions: TNBC 10 mg/kg QD or 5 mg/kg BID, HGSOC 3 mg/kg BID, PO 21 days, 21 days follow-up
[3] = tested on: 12 PDX models (SCLC, TNBC, HGSOC); experiment: TGI and tolerability in 12 PDX models of SCLC, TNBC and HGSOC; format: in vivo
[4] = Plasma exposure on repeated daily dosing in mice; format: in vivo; conditions: repeated daily dosing at therapeutic doses in mice (1-6 mg/kg)
[5] = tested on: ovarian and breast tumor xenografts; experiment: Daily oral dosing in ovarian and breast tumor xenografts; format: in vivo

CC1(C)CC[C@H](Nc2ncc(C(F)(F)F)c(-c3c[nH]c4c(P(C)(C)=O)c(C#N)ccc34)n2)CN1 [Compound 101, (S)-7-(dimethylphosphoryl)-3-(2-((6,6-dimethylpiperidin-3-yl)amino)-5-(trifluoromethyl)pyrimidin-4-yl)-1H-indole-6-carbonitrile]
tumor volume at day 21 [1]: about 250 mm^3
TGI (in words) [2]: deep and sustained TGI, including regressions
TGI at the end of the 21-day dosing period, all models ([3]; 6 or 10 mg/kg QD or 3 or 5 mg/kg BID PO, all 12 models): at least 50%
body weight loss / tolerability ([3]; all once-daily doses tested, tumor-bearing mice): no evident body weight loss
tumor regrowth after treatment discontinuation ([3]; subset 7/12 models, 21 days after treatment discontinuation): no evidence of tumor regrowth
TGI of deep responses in a subset of models ([3]; subset of models (58%, 7/12), TGI or regression): > 95%
plasma exposures [4]: dose proportional without accumulation
pharmacodynamic responses in xenograft tumor tissue ([5]; correlated with TGI): rapid (4 hours) and sustained (24 hours) dose-dependent pharmacodynamic responses
TGI (in words) ([5]; daily oral dosing): dose-dependent TGI
lowest dose at which tumor regression was observed ([5]; daily oral dosing): one-fifth of MTD
